Test results taken from doi:10.64898/2025.12.04.692444v1, “Calcium Dependent Protein Kinase 3 is not essential for the asexual replication of Plasmodium falciparum” (biorxiv, 2025).

Tests used:
[1] = target: T1, PfCDPK3 (full-length recombinant CDPK3) (Plasmodium falciparum, UniProt Q9NJU9); assay: semi-synthetic epitope tagging: thiophosphorylation, PNBM alkylation, anti-thiophosphate ester Western blot; assay type: biochemical; conditions: GST as exogenous substrate; 100 µM ATPγS; 5 mM CaCl2; 50 mM MgCl2; 50 mM Tris; 30 °C, 2 h
T1 construct: some truncated fragments
T1 sequence (Q9NJU9 1-562): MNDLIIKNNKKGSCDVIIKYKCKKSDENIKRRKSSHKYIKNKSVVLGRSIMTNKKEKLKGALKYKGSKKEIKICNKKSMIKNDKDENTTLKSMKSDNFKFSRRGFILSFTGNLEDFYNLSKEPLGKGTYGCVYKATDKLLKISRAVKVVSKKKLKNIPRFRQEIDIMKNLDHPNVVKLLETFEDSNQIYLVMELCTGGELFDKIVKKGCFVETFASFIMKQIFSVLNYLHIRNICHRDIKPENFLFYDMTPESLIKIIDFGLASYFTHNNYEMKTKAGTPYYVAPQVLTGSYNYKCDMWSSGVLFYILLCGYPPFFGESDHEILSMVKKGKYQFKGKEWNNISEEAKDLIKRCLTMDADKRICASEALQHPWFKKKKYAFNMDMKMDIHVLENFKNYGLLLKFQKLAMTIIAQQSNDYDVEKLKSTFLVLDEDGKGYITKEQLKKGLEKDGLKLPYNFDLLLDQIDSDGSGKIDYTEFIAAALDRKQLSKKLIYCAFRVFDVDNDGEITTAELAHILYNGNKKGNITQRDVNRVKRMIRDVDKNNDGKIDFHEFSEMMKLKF

[2] = target: T1, PfCDPK3 (full-length recombinant CDPK3); assay: ADP-Glo luminescence kinase assay; assay type: biochemical; conditions: MBP as exogenous substrate; 100 µM ATP; 5 mM CaCl2; 20 mM MgCl2; 40 mM Tris-Cl pH 7.5; 30 °C, 1 h

SMILES | semi-synthetic epitope tagging: thiophosphorylation, PNBM alkylation, anti-thiop [1] | ADP-Glo luminescence kinase assay [2]
Nc1ncnc2c1ncn2[C@@H]1O[C@H](COP(=O)(O)OP(=O)(O)OP(O)(O)=S)[C@@H](O)[C@H]1O [ATPγS] | ATPγS, a ATP analog, containing terminal thiophosphate group was used as the source | 
Nc1ncnc2c1ncn2[C@@H]1O[C@H](COP(=O)(O)OP(=O)(O)OP(=O)(O)O)[C@@H](O)[C@H]1O [ATP] |  | conversion of ATP to ADP by the recombinant CDPK3, was higher in the presence of calcium
